Counter-ions that a name gives are not always drawn. Like-named read-outs stand apart in the source and are kept apart here.
Test system: subjects with myelofibrosis
Conditions: for Discontinuation because of adverse event, number of subjects / Discontinued, subjects n (%): Table 1
[1] = Example 1, patients who started at =680 mg
[2] = Example 1, started at =680 mg, 24 patients not requiring RBC transfusions at baseline
[3] = MTD cohort, at least possibly related
[4] = Table 3: treatment-emergent hematologic toxicity, MTD subjects (N = 40)
[5] = Table 4: treatment-emergent non-hematologic AE, MTD subjects (N = 40)
[6] = Table 5: treatment-emergent non-hematologic laboratory finding, MTD subjects (N = 40)

SMILES: Cc1cnc(Nc2ccc(OCCN3CCCC3)cc2)nc1Nc1cccc(S(=O)(=O)NC(C)(C)C)c1 [TG101348, N-tert-butyl-3-[(5-methyl-2-{[4-(2-pyrrolidin-1-ylethoxy)phenyl]amino}pyrimidin-4-yl)amino]benzenesulfonamide dihydrochloride monohydrate]
- Patients who experienced DLT (800 mg/day): 2 of 6
- Subjects who discontinued treatment during the extension study (Eight of 43 subjects): 19%
- Patients who discontinued treatment (Example 1, 18 of 59 patients, median follow-up 12 weeks): 31%
- Asymptomatic hyperlipasemia, patients [1]: 33%
- Gr1/2 serum creatinine elevation, patients [1]: 38%
- Gr3 diarrhea, number of patients [1]: 3
- Gr3 nausea, number of patients [1]: 1
- Gr3 neutropenia, patients [1]: 15%
- Gr3 thrombocytopenia, patients [1]: 20%
- Gr3 vomiting, number of patients [1]: 1
- Gr4 neutropenia, patients [1]: 0%
- Gr4 thrombocytopenia, patients [1]: 10%
- Grade 1/2 transaminitis, patients [1]: 38%
- Grade 3 anemia, patients [2]: 42%
- Grade 4 anemia, patients [2]: 8%
- Grade 3/4 neutropenia, patients (Example 1 background): 14%
- Grade 3/4 thrombocytopenia, patients (Example 1 background): 25%
- Long-term toxicities (Example 2 conclusions): no long-term toxicities
- Subjects who discontinued treatment during the first 6 cycles (Fifteen of 59 subjects): 25%
- Reason for discontinuation of study (MF-TG101348-001, subject 101-040, starting 680, termination 520 mg/day, 24 days, possibly related): Adverse events - diarrhea (grade 3; possibly
- Reason for discontinuation of study (MF-TG101348-001, subject 102-019, starting dose 520, dose at termination 520 mg/day, 42 days of treatment, probably related): Adverse event - neutropenia (grade 3;
- Reason for discontinuation of study (MF-TG101348-001, subject 104-027, starting 800, termination 680 mg/day, 77 days, possibly related): Adverse event - thrombocytopenia (grade 4;
- Reason for discontinuation of study (MF-TG101348-001, subject 104-029, starting 680, termination 680 mg/day, 44 days, not related, also embolic stroke (grade 3; not related)): Adverse event - endocarditis (grade 3; not
- Reason for discontinuation of study (MF-TG101348-001, subject 105-059, starting 680, termination 360 mg/day, 27 days, possibly related): Adverse event - cardiac arrest (grade 5;
- Reason for discontinuation of study (MF-TG101348-001, subject 106-028, starting 800, termination 520 mg/day, 44 days, possibly related): Adverse event - thrombocytopenia (grade 4;
- Subjects with serious adverse events considered at least possibly related to TG101348 (MF-TG101348-001 and -002): 8 subjects
- Reason for discontinuation of study (MF-TG101348-002, subject 101-047, starting 680, termination 320 mg/day, cumulative 233 days, possibly related): Adverse event - elevated creatinine (grade 2;
- Reason for discontinuation of study (MF-TG101348-002, subject 104-015, starting 360, termination 520 mg/day, cumulative 257 days, possibly related): Adverse event - depression (grade 3;
- Reason for discontinuation of study (MF-TG101348-002, subject 104-017, starting 520, termination 200 mg/day, cumulative 309 days): Investigator discretion - disease progression
- Reason for discontinuation of study (MF-TG101348-002, subject 105-013, starting 240, termination 360 mg/day, cumulative 321 days, probably related): Adverse event - thrombocytopenia (grade 4;
- Grades 3/4 asymptomatic increase in ALT, subjects (MTD cohort): 8%
- Grades 3/4 asymptomatic increase in AST, subjects (MTD cohort): 3%
- Grades 3/4 asymptomatic increase in serum lipase, subjects (MTD cohort): 15%
- Grades 3/4 increase in alkaline phosphatase, subjects (MTD cohort): 0%
- Grades 3/4 increase in creatinine, subjects (MTD cohort): 0%
- Subjects who required dose-reduction during the first 6 cycles (MTD cohort (n=40), 28 subjects): 70%
- Grade 3 diarrhea, subjects [3]: 13%
- Grade 3 nausea, subjects [3]: 5%
- Grade 3 vomiting, subjects [3]: 3%
- Dose-reduction, primary reason ALT elevation (MTD cohort, first 6 cycles): 7.5%
- Dose-reduction, primary reason amylase/lipase elevation (MTD cohort, first 6 cycles): 10%
- Dose-reduction, primary reason cytopenia(s) (MTD cohort, first 6 cycles): 20%
- Dose-reduction, primary reason gastrointestinal adverse events (MTD cohort, first 6 cycles): 12.5%
- Dose-reduction, primary reason investigator discretion (MTD cohort, first 6 cycles): 7.5%
- Dose-reduction, primary reason other adverse events (MTD cohort, first 6 cycles): 12.5%
- Maximum tolerated dose (MTD) (Phase I study, myelofibrosis): 680 mg
- Discontinuation because of adverse event, number of subjects (MTD (40 enrolled)): 5
- Discontinued, subjects n (%) (MTD (initiated at 680 or 800 mg/day; 40 enrolled)): 11 (28%)
- Discontinuation because of adverse event, number of subjects (Overall (59 enrolled)): 6
- Discontinued, subjects n (%) (Overall (59 enrolled)): 15 (25%)
- Anemia: New Transfusion Requirement on Study, subjects n (%) (Table 3: MTD subjects not transfusion dependent at baseline (N = 24), transfusion on at least 2 occasions for Hb <10 g/dL): 16 (67%)
- Neutropenia Grade 3, subjects n (%) [4]: 6 (15%)
- Neutropenia Grade 4, subjects n (%) [4]: 0
- Thrombocytopenia Grade 3, subjects n (%) [4]: 8 (20%)
- Thrombocytopenia Grade 4, subjects n (%) [4]: 5 (13%)
- Abdominal pain Grade 1, subjects n (%) [5]: 5 (13%)
- Abdominal pain Grade 2, subjects n (%) [5]: 0
- Abdominal pain Grade 3, subjects n (%) [5]: 0
- Abdominal pain Grade 4, subjects n (%) [5]: 0
- Anorexia Grade 1, subjects n (%) [5]: 7 (18%)
- Anorexia Grade 2, subjects n (%) [5]: 0
- Anorexia Grade 3, subjects n (%) [5]: 1 (3%)
- Anorexia Grade 4, subjects n (%) [5]: 0
- Constipation Grade 1, subjects n (%) [5]: 6 (15%)
- Constipation Grade 2, subjects n (%) [5]: 1 (3%)
- Constipation Grade 3, subjects n (%) [5]: 0
- Constipation Grade 4, subjects n (%) [5]: 0
- Contusion Grade 1, subjects n (%) [5]: 5 (13%)
- Contusion Grade 2, subjects n (%) [5]: 0
- Contusion Grade 3, subjects n (%) [5]: 0
- Contusion Grade 4, subjects n (%) [5]: 0
- Diarrhea Grade 1, subjects n (%) [5]: 21 (53%)
- Diarrhea Grade 2, subjects n (%) [5]: 4 (10%)
- Diarrhea Grade 3, subjects n (%) [5]: 5 (13%)
- Diarrhea Grade 4, subjects n (%) [5]: 0
- Edema peripheral Grade 1, subjects n (%) [5]: 7 (18%)
- Edema peripheral Grade 2, subjects n (%) [5]: 1 (3%)
- Edema peripheral Grade 3, subjects n (%) [5]: 0
- Edema peripheral Grade 4, subjects n (%) [5]: 0
- Fatigue Grade 1, subjects n (%) [5]: 2 (5%)
- Fatigue Grade 2, subjects n (%) [5]: 3 (8%)
- Fatigue Grade 3, subjects n (%) [5]: 1 (3%)
- Fatigue Grade 4, subjects n (%) [5]: 0
- Headache Grade 1, subjects n (%) [5]: 4 (10%)
- Headache Grade 2, subjects n (%) [5]: 1 (3%)
- Headache Grade 3, subjects n (%) [5]: 0
- Headache Grade 4, subjects n (%) [5]: 0
- Nausea Grade 1, subjects n (%) [5]: 20 (50%)
- Nausea Grade 2, subjects n (%) [5]: 6 (15%)
- Nausea Grade 3, subjects n (%) [5]: 2 (5%)
- Nausea Grade 4, subjects n (%) [5]: 0
- Proteinuria Grade 1, subjects n (%) [5]: 2 (5%)
- Proteinuria Grade 2, subjects n (%) [5]: 3 (8%)
- Proteinuria Grade 3, subjects n (%) [5]: 0
- Proteinuria Grade 4, subjects n (%) [5]: 0
- Vomiting Grade 1, subjects n (%) [5]: 20 (50%)
- Vomiting Grade 2, subjects n (%) [5]: 7 (18%)
- Vomiting Grade 3, subjects n (%) [5]: 1 (3%)
- Vomiting Grade 4, subjects n (%) [5]: 0
- ALT increased Grade 2, subjects n (%) [6]: 8 (20%)
- ALT increased Grade 3, subjects n (%) [6]: 2 (5%)
- ALT increased Grade 4, subjects n (%) [6]: 0
- AST increased Grade 2, subjects n (%) [6]: 5 (13%)
- AST increased Grade 3, subjects n (%) [6]: 1 (3%)
- AST increased Grade 4, subjects n (%) [6]: 0
- Creatinine increased Grade 2, subjects n (%) [6]: 11 (28%)
- Creatinine increased Grade 3, subjects n (%) [6]: 0
- Creatinine increased Grade 4, subjects n (%) [6]: 0
- Hyperamylasemia Grade 2, subjects n (%) [6]: 0
- Hyperamylasemia Grade 3, subjects n (%) [6]: 1 (3%)
- Hyperamylasemia Grade 4, subjects n (%) [6]: 1 (3%)
- Hyperkalemia Grade 2, subjects n (%) [6]: 3 (8%)
- Hyperkalemia Grade 3, subjects n (%) [6]: 2 (5%)
